# Patent US20140072557A1, “MEDICINAL AGENT FOR SUPPRESSING MALIGNANT TUMOR METASTASIS” (priority 2011, published 2014)
# Legend:
# [1] = test system: A549 cells; experiment: Migration ability, Boyden chamber assay, A549 cells; format: cell-based; details: 1 μM hANP, TGF-β1 1 ng/mL, 20 hours
# Experimental: (§1) Using a 6-well dish, the A549 cells were cultured at 1×10^5 cells/well, and the culture medium was replaced with DMEM culture medium free from FBS the next day. After 24 hours of culture, the cells were divided into 3 groups (the control group, the TGF-β1 group, and the TGF-β1+hANP group), and used in the following experiment.
# To the culture medium for the TGF-β+hANP group, the hANP solution was added so that the final concentration of hANP might be 1 μM. For the control group and the TGF-β1 group, the same amount of physiological saline was added to the culture medium. After 2 hours from the addition, the Boyden chamber assay was performed as follows.
# DMEM culture medium free from FBS for the control group, the same DMEM culture medium containing TGF-β1 (final concentration: 1 ng/mL) for the TGF-β1 group, and the same DMEM culture medium containing hANP (final concentration: 1 μM) and TGF-β1 (final concentration: 1 ng/mL) for the TGF-β1+hANP group were separately added to each well of a 6-well dish in an amount of 1.5 mL. On the surface of each liquid, a cell culture insert (8.0 μm pore size, made by Becton, Dickinson and Company) was placed, and onto each cell culture insert, 1.5 mL of a cell suspension of A549 cells of each group in FBS-free DMEM (hANP at final concentration of 1 μM was added for the TGF-β1+hANP group) was added and cultured. […]
# [2] = test system: A549 cells; experiment: Invasion ability, Matrigel-coated Boyden chamber assay, A549 cells; format: cell-based; details: 1 μM hANP, TGF-β1 1 ng/mL, 40 hours
# Experimental: as §1
# To the culture medium for the TGF-β1+hANP group, the hANP solution was added so that the final concentration of hANP would be […] the control group and the TGF-β1 group, the same amount of physiological saline was added to the culture medium. After 2 hours from the addition, the Boyden chamber assay was performed as follows. Cell culture inserts (8.0 μm pore size, made by Becton, Dickinson and Company) coated with Matrigel were prepared beforehand by placing cell culture inserts on a 6-well dish, adding 300 μL each of a […] Matrigel solution (adjusted with PBS) thereonto, and air drying the inserts.
# DMEM culture medium free from FBS for the control group, the same DMEM culture medium containing TGF-β1 (final concentration: 1 ng/mL) for the TGF-β1 group, and the same DMEM culture medium containing hANP (final concentration: 1 μM) and TGF-β1 (final concentration: 1 ng/mL) for the TGF-β1+hANP group were separately added to each well of a 6-well dish in an amount of 1.5 mL. […]
# [3] = test system: A549 cells; experiment: Apoptosis induction, cell viability by trypan blue staining, A549 cells; format: cell-based; details: hANP 1, 5, 10 μM added 4 times, 48 hours
# Experimental: Using a 96-well dish, the A549 cells were cultured at 1×10^4 cells/well. The culture medium was replaced with DMEM culture medium free from FBS the next day, and after 24-hours culture, the following experiment was conducted.
# To the culture medium, a hANP solution prepared by serial dilution was added so that the final concentration of hANP would be 1, 5, or 10 μM (for the control group, the same amount of physiological saline was added). Further, 2, 4, and 6 hours later, the same amounts of the hANP solutions at the same concentrations were added (for the control group, the same amount of physiological saline was added) (4 times in total). 48 hours later, trypan blue staining was performed and the cell viability (number of living cells/total number of all cells) was determined with the use of an automatic cell counter Countess (registered trademark) (Invitrogen).
# [4] = test system: HUVEC cell layer; experiment: Implantation of A549 cells into HUVEC cell layer; format: cell-based, human; details: VEGF+hANP (1 μM)
# Experimental: Normal human umbilical cord vein endothelial cells (HUVEC) were purchased from Takara Bio, Inc. Medium preparation and subculture were performed according to the package insert. Nuclear staining was performed using TOPRO3 (purchased from Invitrogen), and immunostaining of VE-cadherin was performed using anti-VE-cadherin antibody (purchased from BD Biosciences). p After culturing the HUVEC to confluent and replacing the medium with a serum free medium, nuclear staining and immunostaining using anti-VE-cadherin antibody were performed in the presence or absence of VEGF and hANP to observe the expression of VE-cadherin.
# In the presence of VEGF alone, the expression of VE-cadherin decreased, and intercellular gaps were observed. […] Further, in the presence of VEGF alone, when A549 cells were added onto the HUVEC cell layer, implantation of the A549 cells into the HUVEC cell layer was observed.
# [5] = test system: mouse melanoma B16-F10; experiment: Mouse tail vein injection metastasis test, mouse melanoma B16-F10; format: in vivo, mice; details: 0.5 μg/kg/min by subcutaneous osmotic pump, 2 weeks
# Experimental: 6-week-old male […] mice were used (purchased from Japan SLC, Inc.). Mouse melanoma B16-F10 was purchased from ATCC, and cultured in DMEM (Life Technologies Corp.) containing 10% FCS under 5% CO2 at 37° C. The cells in a subconfluent state were treated with EDTA-trypsin, centrifuged, and then suspended in serum free DMEM so as to be 5×10^6 cells/mL. The melanoma cell suspension (100 μL/mouse, 5×10^5 cells) was injected to the tail vein of the mice. The osmotic pumps used were MODEL2002 (for 14-day administration) made by ALZET (Cupertino, Calif,.).
# Mice into which an osmotic pump containing 0.9% physiological saline was subcutaneously implanted in the back were assigned to the control group. Similarly, an osmotic pump containing hANP prepared for administration at 0.5 μg/kg/min was subcutaneously implanted into each mouse in the ANP group, an osmotic pump containing mouse BNP prepared for administration at 0.5 μg/kg/min was subcutaneously implanted into each mouse in the BNP group, and an osmotic pump containing hCNP-22 prepared for administration at 2.5 μg/kg/min was subcutaneously implanted into each mouse in the CNP group. To the mice in the sildenafil group, sildenafil citrate at a dosage of 20 mg/kg was intraperitoneally administered once daily. […]
structure (smiles),measurement,setting,value
"CC[C@H](C)[C@@H]1NC(=O)[C@H](CCCNC(=N)N)NC(=O)[C@H](CC(=O)O)NC(=O)[C@H](CCSC)NC(=O)[C@H](CCCNC(=N)N)NC(=O)CNC(=O)CNC(=O)[C@H](Cc2ccccc2)NC(=O)[C@@H](NC(=O)[C@H](CO)NC(=O)[C@H](CO)NC(=O)[C@H](CCCNC(=N)N)NC(=O)[C@H](CCCNC(=N)N)NC(=O)[C@H](CC(C)C)NC(=O)[C@@H](N)CO)CSSC[C@@H](C(=O)N[C@@H](CC(N)=O)C(=O)N[C@@H](CO)C(=O)N[C@@H](Cc2ccccc2)C(=O)N[C@@H](CCCNC(=N)N)C(=O)N[C@@H](Cc2ccc(O)cc2)C(=O)O)NC(=O)CNC(=O)[C@H](CC(C)C)NC(=O)CNC(=O)[C@H](CO)NC(=O)[C@H](CCC(N)=O)NC(=O)[C@H](C)NC(=O)CNC1=O [hANP, carperitide]",migration ability (cells on lower surface of insert),[1],significantly suppressed
same,cell invasion via the Matrigel layer,[2],significantly suppressed
same,number of living cancer cells (cell viability),[3],decreased in a hANP-concentration-dependent manner
same,implantation of A549 cells into the HUVEC cell layer,[4],this phenomenon of implantation was suppressed
same,lung metastasis of melanoma (number of nodules),[5],significantly suppressed
